# In US9138466B2, “Factor H for transplantation” (Baxter International Inc., priority 2013, dated 2015):
# Several values for one entry are separate records, joined by “and”; a condition that tells them apart may be missing. Equal entries are not always repeated. Where two headings read alike, the source gives them in different places. Marks after values point to notes of the source that are not given here.
# Columns and labels:
# Assay type in all cases: in vivo
# [1] = system: collagen antibody-induced arthritis in Balb C mice; experiment: Mouse CAIA, hind paw volume / footpad swelling (Example 4); set-up: Mean Disease Burden / Hind Limb Volume, Mean Diff. / Total Disease, Mean Diff.: unit not given here; settings: for Total Footpad Thickness, Day of Study 8: day 8; for Total Footpad Thickness, Day of Study 11: day 11; for Total Footpad Thickness, Day of Study 12: day 12; for Total Footpad Thickness, Day of Study 13: day 13; for Total Footpad Thickness, Day of Study 15: day 15; for Total Footpad Thickness, Day of Study 19: day 19; for Total Footpad Thickness, Day of Study 22: day 22; for % Disease Suppression: footpad thickness AUC vs vehicle; for Total Disease Burden (AUC): footpad thickness days 8-22, in mL·day
# [2] = system: collagen antibody-induced arthritis in Balb C mice; experiment: Mouse CAIA, clinical score (Example 4); set-up: key to Mean Maximum Clinical Score: scored 0 to 60, sum of 4 limbs
# [3] = Mouse CAIA, body weight and tolerability (Example 4)
# Method: Balb C mice (n=10 per cohort) were used to determine the efficacy of Factor H (FH) during transplant rejection. The mice were treated with ArthritoMAb (anti-collagen) antibody cocktail (2 mg, i.v.) on day 1, followed 7 days later with an injection of LPS (50 μg, i.p.). On day 8, hind paw volumes were measured for each animal and distributed to various treatment groups.
# Hind paw volumes were measured on day 8, 11, 12, 13, 15, 19 and 22 (endpoint). The age at start date was 7 to 9 weeks. Body weights were measured bi-weekly to the endpoint (Table 4). At the endpoint, tissue samples were processed for histology and submitted to a pathologist for independent analysis. Sampling 1 was performed at the endpoint. The hind limbs were preserved in 10% formalin. Sampling 2 was performed at the endpoint for group 4 animals. Blood was collected by terminal cardiac puncture. The blood was processed for anti-coagulant. The kidneys were additionally preserved in formalin and followed with 70% EtOH. Samples were scored for inflammation, pannus (granulation tissue), cartilage damage, bone resorption and exostosis (Table 5).
# [4] = system: collagen antibody-induced arthritis in Balb C mice; experiment: Mouse CAIA, histopathology of hind limbs (ankle, H & E) (Example 4)
# [5] = Dunnett's Multiple Comparison Test, G1 vehicle vs treatment
# [6] = Dunnett's Multiple Comparison Test, vehicle vs treatment
# [7] = Dunn's Multiple Comparison Test, G1 vehicle vs treatment
# [8] = ankle, group mean, score 0 = normal to 5 = severe
# [9] = ankle, individual animal, score 0 = normal to 5 = severe
# [10] = ankle, individual animal, score 0 = normal to 5 = severe, listed as Group 2
smiles,measurement,setting,value
C[C@@H]1C[C@H]2[C@@H]3CCC4=CC(=O)C=C[C@]4(C)[C@@]3(F)[C@@H](O)C[C@]2(C)[C@@]1(O)C(=O)CO [Dexamethasone],Mean Disease Burden,"[1]; AUC of combined footpad volume over baseline, days 8 to 22, group mean, vehicle 1.93",−0.32***
same,"Total Disease, 95% CI of diff",[1]; [5],1.50 to 3.00
same,"Total Disease, Mean Diff.",[1]; [5],2.25
same,"Total Disease, Summary",[1]; [5],*** (***= P < 0.001)
same,"Total Disease, q",[1]; [5],7.36
same,"Hind Limb Volume, 95% CI of diff",[1]; [6],0.09687 to 0.2080
same,"Hind Limb Volume, Mean Diff.",[1]; [6],0.1524
same,"Hind Limb Volume, Summary",[1]; [6],*** (***= P < 0.001)
same,"Hind Limb Volume, q",[1]; [6],6.877
same,"Total Footpad Thickness, Day of Study 8","[1]; group mean, n 10",0.35 mL
same,"Total Footpad Thickness, Day of Study 8",[1]; individual animals (A# 1-10),0.42 mL and 0.39 mL (2×) and 0.37 mL and 0.35 mL and 0.34 mL and 0.33 mL and 0.31 mL (2×) and 0.3 mL
same,"Total Footpad Thickness, Day of Study 11","[1]; group mean, n 10",0.32 mL
same,"Total Footpad Thickness, Day of Study 11",[1]; individual animals (A# 1-10),0.30 mL and 0.34 mL and 0.32 mL (3×) and 0.3 mL (3×) and 0.35 mL and 0.31 mL
same,"Total Footpad Thickness, Day of Study 12","[1]; group mean, n 10",0.34 mL
same,"Total Footpad Thickness, Day of Study 12",[1]; individual animals (A# 1-10),0.34 mL (4×) and 0.28 mL and 0.35 mL and 0.32 mL and 0.31 mL and 0.39 mL and 0.37 mL
same,"Total Footpad Thickness, Day of Study 13","[1]; group mean, n 10",0.33 mL
same,"Total Footpad Thickness, Day of Study 13",[1]; individual animals (A# 1-10),0.31 mL (2×) and 0.3 mL (2×) and 0.36 mL and 0.38 mL (2×) and 0.33 mL and 0.35 mL and 0.29 mL
same,"Total Footpad Thickness, Day of Study 15","[1]; group mean, n 10",0.31 mL
same,"Total Footpad Thickness, Day of Study 15",[1]; individual animals (A# 1-10),0.37 mL and 0.33 mL and 0.29 mL (3×) and 0.38 mL and 0.26 mL and 0.3 mL (2×) and 0.27 mL
same,"Total Footpad Thickness, Day of Study 19","[1]; group mean, n 10",0.34 mL
same,"Total Footpad Thickness, Day of Study 19",[1]; individual animals (A# 1-10),0.35 mL (4×) and 0.28 mL and 0.3 mL and 0.38 mL and 0.37 mL and 0.32 mL and 0.0 mL
same,"Total Footpad Thickness, Day of Study 22","[1]; group mean, n 10",0.31 mL
same,"Total Footpad Thickness, Day of Study 22",[1]; individual animals (A# 1-10),0.39 mL and 0.42 mL and 0.3 mL and 0.32 mL and 0.29 mL (2×) and 0.35 mL (2×) and 0.31 mL and 0.25 mL
same,% Disease Suppression,"[1]; group mean, n 10",116.49%
same,% Disease Suppression,[1]; individual animals (A# 1-10),139.7% and 129.0% and 162.5% and 125.0% and 114.5% and 102.9% and 104.7% and 87.3% and 96.1% and 101.3%
same,Total Disease Burden (AUC),"[1]; group mean, n 10",−0.32
same,Total Disease Burden (AUC),[1]; individual animals (A# 1-10),−0.77 and −0.51 and −1.21 and −0.54 and −0.28 and −0.06 and −0.09 and 0.25 and 0.10 and −0.02
same,Maximum Δ Mean Volume,"[1]; mean combined foot pad volume, day 8 vs median day of maximal swelling, vehicle 0.21",0.03*** ml
same,% Disease Suppression (vs Vehicle),[1]; percent decrease in total disease burden relative to vehicle,116.5%
same,"Clinical Score, Difference in rank sum",[2]; [7],23.95
same,"Clinical Score, Summary",[2]; [7],*** (***= P < 0.001)
same,"Clinical score, Mean","[2]; day 8, group mean n=10",4.00
same,Clinical score,"[2]; day 8, individual animal",5 (2×) and 10 (3×) and 0 (5×)
same,"Clinical score, Mean","[2]; day 11, group mean n=10",0.10
same,Clinical score,"[2]; day 11, individual animal",0 (9×) and 1
same,"Clinical score, Mean","[2]; day 12, group mean n=10",5.70
same,Clinical score,"[2]; day 12, individual animal",0 (3×) and 10 (4×) and 5 (2×) and 7
same,"Clinical score, Mean","[2]; day 13, group mean n=10",6.00
same,Clinical score,"[2]; day 13, individual animal",0 (4×) and 10 (6×)
same,"Clinical score, Mean","[2]; day 15, group mean n=10",0.00
same,Clinical score,"[2]; day 15, individual animal",0
same,"Clinical score, Mean","[2]; day 19, group mean n=10",0.00
same,Clinical score,"[2]; day 19, individual animal",0
same,"Clinical score, Mean","[2]; day 22, group mean n=10",0.00
same,Clinical score,"[2]; day 22, individual animal",0
same,"Day (of Max Clin Score), Mean","[2]; group line 'Mean', day of study",12.00
same,"Max Clin Score, Mean",[2]; group mean n=10,9.20
same,Max Clin Score,[2]; individual animal,5 and 10 (8×) and 7
same,Day (of Max Clin Score),"[2]; individual animal, day of study",8 (4×) and 13 (2×) and 12 (4×)
same,Mean Maximum Clinical Score,"[2]; scored from 0 to 60, sum of 4 limbs, vehicle 45.4",9.2***
same,"Body Weight, Wt (g), Mean","[3]; day 1, group mean n=10, before dosing start (day 8)",17.7 g
same,"Body Weight, Wt (g), Mean","[3]; day 5, group mean n=10, before dosing start (day 8)",17.9 g
same,"Body Weight, Wt (g), Mean","[3]; day 8, group mean n=10",16.3 g
same,"Body Weight, Wt (g), Mean","[3]; day 12, group mean n=10",16.8 g
same,"Body Weight, Wt (g), Mean","[3]; day 15, group mean n=10",16.7 g
same,"Body Weight, Wt (g), Mean","[3]; day 19, group mean n=10",16.5 g
same,"Body Weight, Wt (g), Mean","[3]; day 22, group mean n=10",16.5 g
same,Mean Body Weigh at Nadir,"[3]; lowest group mean body weight as % change from day 1, vehicle −8.0%",−7.7%
same,"Score From H & E, Bone Resorption",[4],0.8 ± 0.9
same,"Cartilage, Difference in rank sum",[4]; [7],9.25
same,"Composite, Difference in rank sum",[4]; [7],14.05
same,"Composite, Summary",[4]; [7],* (*= P < 0.05)
same,"Exostosis, Difference in rank sum",[4]; [7],13.1
same,"Exostosis, Summary",[4]; [7],** (**= P < 0.01)
same,"Inflammation, Difference in rank sum",[4]; [7],14.95
same,"Inflammation, Summary",[4]; [7],** (**= P < 0.01)
same,"Pannus, Difference in rank sum",[4]; [7],11.4
same,Composite Histopathaligy Score,"[4]; ankle, group mean",0.2 ± 0.1
same,"Score From H & E, Cartilage Damage",[4]; [8],0.9 ± 0.8
same,"Score From H & E, Inflammation",[4]; [8],0.3 ± 0.1
same,"Score From H & E, Pannus",[4]; [8],0.1 ± 0.1
same,"Score From H & E, Periosteal Exostotic Changes",[4]; [8],0.9 ± 0.8
same,"Score From H & E, Bone Resorption",[4]; [9],0
same,"Score From H & E, Cartilage Damage",[4]; [9],0
same,"Score From H & E, Periosteal Exostotic Changes",[4]; [9],0
same,"Score From H & E, Inflammation",[4]; [10],0 (9×) and 1
same,"Score From H & E, Pannus",[4]; [10],1 and 0 (9×)
same,Composite Histopathaligy Score,"[4]; ankle, individual animal, listed as Group 2",3 and 0 (8×) and 1
same,Bone Resorption,"[4]; histopathology summary, graded 1-5, vehicle 0.6 ± 0.3",0 ± 0^ns
same,Pannus,"[4]; histopathology summary, graded 1-5, vehicle 1.0 ± 0.3",0.1 ± 0.1^ns
same,Inflammation,"[4]; histopathology summary, graded 1-5, vehicle 2.0 ± 0.5",0.1 ± 0.1
same,Exostosis,"[4]; histopathology summary, graded 1 to 5, vehicle 2.6 ± 0.5",0 ± 0
same,Cartilage Damage,"[4]; histopathology summary, vehicle 0.5 ± 0.2",0 ± 0^ns
same,Composite Score,"[4]; histopathology summary, vehicle 6.7 ± 1.7",0.2 ± 0.1
